ChEMBL document CHEMBL3217722, “Synthesis of hybrid 4-anilinoquinoline triazines as potent antimalarial agents, their in silico modeling and bioevaluation as Plasmodium falciparumtransketolase and -hematin inhibitors” (Medchemcomm, 2012)
≈ marks a conversion by molar mass, not a printed value. Calls of active or inactive are those of the source. No cut-off for these calls is given here.

Key:
Plasmodium yoelii [1] = assay: Inhibition of beta-hematin formation in Plasmodium yoelii infected Swiss mouse plasma after 16 hrs; type: functional
Plasmodium falciparum [2] = assay: Antiplasmodial activity against chloroquine-sensitive Plasmodium falciparum 3D7 after 72 hrs by SYBR Green-1 dye-based fluorescence assay; type: functional, organism-based; details: 3D7, 72 h
Plasmodium falciparum [3] = assay: Antiplasmodial activity against chloroquine-resistant Plasmodium falciparum K1 after 72 hrs by SYBR Green-1 dye-based fluorescence assay; type: functional, organism-based; details: K1, 72 h
[4] = Selectivity index, ratio of IC50 for African green monkey Vero cells to IC50 for Plasmodium falciparum; type: toxicity, cell-based; details: read-out: Ratio IC50
Plasmodium yoelii [5] = assay: Antimalarial activity against chloroquine-resistant Plasmodium yoelii N-67 infected in Swiss mouse assessed as inhibition of parasitemia at 50 mg/kg, po qd for 4 days relative to control; type: functional; details: N-67, 96 h
Plasmodium yoelii [6] = assay: Antimalarial activity against chloroquine-resistant Plasmodium yoelii N-67 infected in Swiss mouse assessed as mouse survival at 50 mg/kg, po qd for 4 days measured on day 28; type: functional, organism-based; design: dose 50 mg/kg
Plasmodium yoelii [7] = assay: Antimalarial activity against chloroquine-resistant Plasmodium yoelii N-67 infected in Swiss mouse assessed as inhibition of parasitemia at 100 mg/kg, po qd for 4 days relative to control; type: functional; details: N-67, 96 h
Plasmodium yoelii [8] = assay: Antimalarial activity against chloroquine-resistant Plasmodium yoelii N-67 infected in Swiss mouse assessed as mouse survival at 100 mg/kg, po qd for 4 days measured on day 28; type: functional, organism-based; design: dose 100 mg/kg
[9] = Inhibition of Plasmodium falciparum transketolase using fructose-6-phosphate as substrate by spectrophotometric analysis

Q: For `Fc1cccc(Nc2nc(NCCN3CCOCC3)nc(Nc3ccc(Nc4ccnc5cc(Cl)ccc45)cc3)n2)c1`, which IC50 (Plasmodium yoelii [1]) is on record?
A: Its IC50 is 2.7 µg/mL (≈ 4.61 µM).

Q: What about the IC50 (Plasmodium falciparum [2]) of the same compound?
A: The IC50 was 0.04 µg/mL (≈ 0.0683 µM).

Q: And the IC50 (Plasmodium falciparum [3])?
A: The IC50 was 0.0781 µg/mL (≈ 0.133 µM).

Q: What about the selectivity ratio [4] of the same compound?
A: Its selectivity ratio is 122.

Q: What does the source list for `CCN1CCN(c2nc(Nc3ccc(Nc4ccnc5cc(Cl)ccc45)cc3)nc(N3CCc4ccccc4C3)n2)CC1`?
A: IC50 (Plasmodium yoelii [1]): 2.25 µg/mL (≈ 3.8 µM); IC50 (Plasmodium falciparum [2]): 0.0121 µg/mL (≈ 0.0205 µM); IC50 (Plasmodium falciparum [3]): 0.116 µg/mL (≈ 0.196 µM); selectivity ratio [4]: 75.9

Q: What does the source list for `CCN1CCN(c2nc(Nc3ccc(Nc4ccnc5cc(Cl)ccc45)cc3)nc(N3CCCc4ccccc43)n2)CC1`?
A: inhibition in vivo at 50 mg/kg (Plasmodium yoelii [5]): 77.8%; IC50 (Plasmodium yoelii [1]): 6.55 µg/mL (≈ 11.1 µM); Activity (Plasmodium yoelii [6]): inactive; IC50 (Plasmodium falciparum [2]): 0.0208 µg/mL (≈ 0.0352 µM); inhibition in vivo at 100 mg/kg (Plasmodium yoelii [7]): 99%; IC50 (Plasmodium falciparum [3]): 0.0116 µg/mL (≈ 0.0197 µM); selectivity ratio [4]: 36; Activity (Plasmodium yoelii [8]): inactive

Q: What does the source list for `CN1CCN(c2nc(Nc3ccc(F)cc3)nc(Nc3ccc(Nc4ccnc5cc(Cl)ccc45)cc3)n2)CC1`?
A: IC50 (Plasmodium yoelii [1]): 2.08 µg/mL (≈ 3.74 µM); IC50 (Plasmodium falciparum [2]): 0.00897 µg/mL (≈ 0.0161 µM); inhibition in vivo at 100 mg/kg (Plasmodium yoelii [7]): 100%; IC50 (Plasmodium falciparum [3]): 0.00206 µg/mL (≈ 0.0037 µM); selectivity ratio [4]: 122; Activity (Plasmodium yoelii [8]): inactive

Q: For `CN1CCN(c2nc(Nc3ccc(Nc4ccnc5cc(Cl)ccc45)cc3)nc(Nc3cccc(F)c3)n2)CC1`, which inhibition in vivo at 50 mg/kg (Plasmodium yoelii [5]) is on record?
A: The inhibition in vivo at 50 mg/kg was 99.8%.

Q: What about the IC50 (Plasmodium yoelii [1]) of the same compound?
A: The IC50 was 3.03 µg/mL (≈ 5.45 µM).

Q: What about the Activity (Plasmodium yoelii [6]) of the same compound?
A: The Activity was “inactive”.

Q: And the IC50 (Plasmodium falciparum [2])?
A: Its IC50 is 0.0228 µg/mL (≈ 0.041 µM).

Q: And the inhibition in vivo at 100 mg/kg (Plasmodium yoelii [7])?
A: The inhibition in vivo at 100 mg/kg was 100%.

Q: And the IC50 (Plasmodium falciparum [3])?
A: Its IC50 is 0.00154 µg/mL (≈ 0.00277 µM).

Q: And the selectivity ratio [4]?
A: The selectivity ratio was 55.3.

Q: And the Activity (Plasmodium yoelii [8])?
A: The Activity was “inactive”.

Q: With `Clc1ccc2c(Nc3ccc(Nc4nc(NCCCN5CCOCC5)nc(N5CCCc6ccccc65)n4)cc3)ccnc2c1` as the compound, how does the IC50 (Plasmodium yoelii [1]) read?
A: The IC50 was 2.4 µg/mL (≈ 3.86 µM).

Q: What about the IC50 (Plasmodium falciparum [2]) of the same compound?
A: The IC50 was 0.0147 µg/mL (≈ 0.0236 µM).

Q: What about the IC50 (Plasmodium falciparum [3]) of the same compound?
A: Its IC50 is greater than 0.5 µg/mL.

Q: What about the selectivity ratio [4] of the same compound?
A: The selectivity ratio was 440.

Q: For `CCN1CCN(c2nc(Nc3ccc(Nc4ccnc5cc(Cl)ccc45)cc3)nc(Nc3ccc(OC)cc3)n2)CC1`, which IC50 (Plasmodium yoelii [1]) is on record?
A: The IC50 was 2.08 µg/mL (≈ 3.57 µM).

Q: And the IC50 (Plasmodium falciparum [2])?
A: Its IC50 is 0.00426 µg/mL (≈ 0.00732 µM).

Q: What about the IC50 (Plasmodium falciparum [3]) of the same compound?
A: The IC50 was 0.00308 µg/mL (≈ 0.00529 µM).

Q: And the selectivity ratio [4]?
A: Its selectivity ratio is 75.1.

Q: Which results are given for `COc1ccc(Nc2nc(Nc3ccc(Nc4ccnc5cc(Cl)ccc45)cc3)nc(N3CCN(C)CC3)n2)cc1OC`?
A: IC50 (Plasmodium yoelii [1]): 3.05 µg/mL (≈ 5.1 µM); IC50 (Plasmodium falciparum [2]): 0.00504 µg/mL (≈ 0.00843 µM); IC50 (Plasmodium falciparum [3]): 0.00486 µg/mL (≈ 0.00813 µM); selectivity ratio [4]: 169

Q: With `Clc1cccc(Nc2nc(NCCN3CCOCC3)nc(Nc3ccc(Nc4ccnc5cc(Cl)ccc45)cc3)n2)c1` as the compound, how does the IC50 (Plasmodium yoelii [1]) read?
A: The IC50 was 2.01 µg/mL (≈ 3.34 µM).

Q: What about the IC50 (Plasmodium falciparum [2]) of the same compound?
A: The IC50 was 0.0306 µg/mL (≈ 0.0508 µM).

Q: What about the IC50 (Plasmodium falciparum [3]) of the same compound?
A: The IC50 was 0.00649 µg/mL (≈ 0.0108 µM).

Q: What about the selectivity ratio [4] of the same compound?
A: The selectivity ratio was 101.

Q: For `Fc1cccc(Nc2nc(NCCCN3CCOCC3)nc(Nc3ccc(Nc4ccnc5cc(Cl)ccc45)cc3)n2)c1`, which IC50 (Plasmodium yoelii [1]) is on record?
A: The IC50 was 2.06 µg/mL (≈ 3.43 µM).

Q: And the IC50 (Plasmodium falciparum [2])?
A: Its IC50 is 0.00136 µg/mL (≈ 0.00227 µM).

Q: And the inhibition in vivo at 100 mg/kg (Plasmodium yoelii [7])?
A: Its inhibition in vivo at 100 mg/kg is 100%.

Q: What about the IC50 [9] of the same compound?
A: Its IC50 is 76.7 µM.

Q: What about the IC50 (Plasmodium falciparum [3]) of the same compound?
A: The IC50 was 0.00571 µg/mL (≈ 0.00952 µM).

Q: What about the selectivity ratio [4] of the same compound?
A: Its selectivity ratio is 551.

Q: And the Activity (Plasmodium yoelii [8])?
A: Its Activity is “inactive”.

Q: Which IC50 (Plasmodium yoelii [1]) does the source give for `CN1CCN(c2nc(Nc3ccc(Nc4ccnc5cc(Cl)ccc45)cc3)nc(N3CCc4ccccc4C3)n2)CC1` here?
A: The IC50 was 2.81 µg/mL (≈ 4.86 µM).

Q: What about the IC50 (Plasmodium falciparum [2]) of the same compound?
A: Its IC50 is 0.0281 µg/mL (≈ 0.0486 µM).

Q: What about the selectivity ratio [4] of the same compound?
A: Its selectivity ratio is 48.4.

Q: For `CCN1CCN(c2nc(Nc3ccc(Nc4ccnc5cc(Cl)ccc45)cc3)nc(Nc3cccc(OC)c3)n2)CC1`, which IC50 (Plasmodium yoelii [1]) is on record?
A: Its IC50 is 2.25 µg/mL (≈ 3.87 µM).

Q: And the IC50 (Plasmodium falciparum [2])?
A: The IC50 was 0.0089 µg/mL (≈ 0.0153 µM).

Q: And the selectivity ratio [4]?
A: Its selectivity ratio is 73.

Q: With `CCN1CCN(c2nc(Nc3ccc(Nc4ccnc5cc(Cl)ccc45)cc3)nc(N3CCOCC3)n2)CC1` as the compound, how does the inhibition in vivo at 50 mg/kg (Plasmodium yoelii [5]) read?
A: The inhibition in vivo at 50 mg/kg was 93.5%.

Q: And the IC50 (Plasmodium yoelii [1])?
A: Its IC50 is 4.17 µg/mL (≈ 7.64 µM).

Q: And the Activity (Plasmodium yoelii [6])?
A: Its Activity is “inactive”.

Q: And the IC50 (Plasmodium falciparum [2])?
A: Its IC50 is 0.00216 µg/mL (≈ 0.00396 µM).

Q: And the inhibition in vivo at 100 mg/kg (Plasmodium yoelii [7])?
A: The inhibition in vivo at 100 mg/kg was 100%.

Q: What about the IC50 (Plasmodium falciparum [3]) of the same compound?
A: The IC50 was 0.0147 µg/mL (≈ 0.0269 µM).

Q: And the selectivity ratio [4]?
A: The selectivity ratio was 431.

Q: And the Activity (Plasmodium yoelii [8])?
A: The Activity was “inactive”.

Q: Which results are given for `Fc1ccc(Nc2nc(Nc3ccc(Nc4ccnc5cc(Cl)ccc45)cc3)nc(N3CCCCC3)n2)cc1`?
A: IC50 (Plasmodium yoelii [1]): 2.43 µg/mL (≈ 4.49 µM); IC50 (Plasmodium falciparum [2]): 0.0417 µg/mL (≈ 0.0772 µM); IC50 (Plasmodium falciparum [3]): > 0.5 µg/mL; selectivity ratio [4]: 520

Q: What does the source list for `Clc1ccc(Nc2nc(NCCCN3CCOCC3)nc(Nc3ccc(Nc4ccnc5cc(Cl)ccc45)cc3)n2)cc1`?
A: IC50 (Plasmodium yoelii [1]): 2.25 µg/mL (≈ 3.65 µM); IC50 (Plasmodium falciparum [2]): 0.00463 µg/mL (≈ 0.00751 µM); IC50 (Plasmodium falciparum [3]): 0.00858 µg/mL (≈ 0.0139 µM); selectivity ratio [4]: 482

Q: With `CN1CCN(c2nc(Nc3ccc(Nc4ccnc5cc(Cl)ccc45)cc3)nc(N3CCCc4ccccc43)n2)CC1` as the compound, how does the IC50 (Plasmodium yoelii [1]) read?
A: Its IC50 is 2.48 µg/mL (≈ 4.29 µM).

Q: What about the IC50 (Plasmodium falciparum [2]) of the same compound?
A: The IC50 was 0.0126 µg/mL (≈ 0.0219 µM).

Q: And the IC50 (Plasmodium falciparum [3])?
A: Its IC50 is 0.0682 µg/mL (≈ 0.118 µM).

Q: And the selectivity ratio [4]?
A: Its selectivity ratio is 74.4.

Q: With `COc1ccc(Nc2nc(NCCCN3CCOCC3)nc(Nc3ccc(Nc4ccnc5cc(Cl)ccc45)cc3)n2)cc1OC` as the compound, how does the IC50 (Plasmodium yoelii [1]) read?
A: The IC50 was 2.3 µg/mL (≈ 3.58 µM).

Q: And the IC50 (Plasmodium falciparum [2])?
A: The IC50 was 0.00458 µg/mL (≈ 0.00713 µM).

Q: What about the IC50 (Plasmodium falciparum [3]) of the same compound?
A: Its IC50 is 0.0026 µg/mL (≈ 0.00405 µM).

Q: What about the selectivity ratio [4] of the same compound?
A: Its selectivity ratio is 413.

Q: What does the source list for `Clc1ccc2c(Nc3ccc(Nc4nc(NCCN5CCOCC5)nc(N5CCCc6ccccc65)n4)cc3)ccnc2c1`?
A: IC50 (Plasmodium yoelii [1]): 2.31 µg/mL (≈ 3.8 µM); IC50 (Plasmodium falciparum [2]): 0.0174 µg/mL (≈ 0.0285 µM); IC50 (Plasmodium falciparum [3]): 0.275 µg/mL (≈ 0.452 µM); selectivity ratio [4]: 588

Q: With `Fc1ccc(Nc2nc(NCCN3CCOCC3)nc(Nc3ccc(Nc4ccnc5cc(Cl)ccc45)cc3)n2)cc1` as the compound, how does the IC50 (Plasmodium yoelii [1]) read?
A: Its IC50 is 2.38 µg/mL (≈ 4.06 µM).

Q: What about the IC50 (Plasmodium falciparum [2]) of the same compound?
A: The IC50 was 0.00981 µg/mL (≈ 0.0167 µM).

Q: And the inhibition in vivo at 100 mg/kg (Plasmodium yoelii [7])?
A: Its inhibition in vivo at 100 mg/kg is 100%.

Q: What about the IC50 (Plasmodium falciparum [3]) of the same compound?
A: Its IC50 is 0.0954 µg/mL (≈ 0.163 µM).

Q: And the selectivity ratio [4]?
A: Its selectivity ratio is 1330.

Q: And the Activity (Plasmodium yoelii [8])?
A: Its Activity is “inactive”.
